According to publication PMC4488747, “Inhibition of P-glycoprotein Gene Expression and Function Enhances Triptolide-induced Hepatotoxicity in Mice” (Scientific Reports, 2015):
Where two headings read alike, the source gives them in different places.

How the values were obtained:
Bcl-2/Bax = test: Bcl-2 and Bax expression in mouse liver (western blot); format: in vivo; conditions: mice, TP 1 mg/kg iv, 24 h; tariquidar and mdr1a-siRNA = given before TP
Method: For protein extraction, the cells or mice liver tissues were homogenized in RIPA buffer and then centrifuged at 14,000 g at 4 °C for 30 min. The supernatant was collected and the protein concentration was measured using BCA assay. The sample (50 μg protein/sample) was then loaded on 12% polyacrylamide gels and transferred to polyvinylidene difluoride membranes (Millipore, USA). After blocked by 3% bovine serum albumin, the membranes were incubated with primary antibodies and HRP-conjugated secondary antibody, and then detected using the enhanced chemiluminescence plus detection system (Molecular Device, Lmax, USA). The density of each band was quantified by using image analysis software (Science Lab 2005 Image Guage; Tokyo, Japan).
At 24 h of TP treatment, blood and liver tissue samples were collected from the mice in plasma kinetic study. Serum ALT and AST levels were determined with a CL8000 automated biochemical analyzer (Shimadzu, Japan) after serum was separated by centrifugation at 900 g for 10 min. Liver tissue samples were divided into two parts, the first half was kept at −80 °C until MDA and SOD measurements using MDA and SOD assay kits (Nanjing Jiancheng Bioengineering Institute, Nanjing, China) according to the manufacturer’s instructions. […] The total protein concentration was quantified by the BCA assay. Bcl-2 and Bax proteins were measured by western blot.

[1] = set-up: method as in PMID 24632843; conditions: bile duct-cannulated (BDC) rats, in 24 h; cited from earlier work
[2] = Triptolide plasma toxicokinetics in mice; format: in vivo; conditions: TP 1.0 mg/kg iv
Method: (§1) For TP plasma kinetic study and toxicological evaluation, mice were divided into four groups (n = 5 each) to collect blood and tissue samples: (1) normal + saline group; (2) 1.0 mg/kg TP + 15 nmol NC-siRNA group; (3) 1.0 mg/kg TP + 15 nmol mdr1a-siRNA group; (4) 1.0 mg/kg TP + 10 mg/kg tariquidar group. In order to avoid the complication caused by drug absorption or possible intestinal first-pass effect, TP and the inhibitor were intravenously administrated to mice. The siRNA group was intravenously injected with NC-siRNA or mdr1a-siRNA 2 days before TP dose. For TP + tariquidar group, the mice were received an intravenous tariquidar dose 20 min prior to the TP injection. Blood samples were collected at 2, 5, 10, 15, 30, 60 and 120 min after TP dosing. To assess the liver exposure of TP, liver tissue samples were collected from another set of mice at 5, 30, 60 and 120 min after dosing. Three TP groups were design for this experiment, including TP + NC-siRNA group, TP + mdr1a-siRNA group and TP + tariquidar group. The liver tissue samples were weighed and then homogenized in 10 volume (w:v) of ice-cold saline. The concentrations of TP in plasma and liver tissue were measured by a validated LC-MS/MS method. Prior to the above animal study, a preliminary experiment was performed to assess the possible differences in liver P-gp protein expression (Figure S1) and TP plasma kinetics between NC-siRNA treated mice and normal mice (with saline) (Figure S2 and supplemental Table 1). […] Therefore, NC-siRNA group was used as the control in the following animal study.
The TP in plasma and tissue samples was quantitatively analyzed by a published LC-MS/MS method. The method was slightly modified and validated for analysis of plasma and liver tissue samples. Plasma and tissue homogenate were pretreated with 3-fold volume of methanol-acetonitrile (1:1, v/v) containing 20 ng/ml propranolol to precipitate proteins, and then centrifuged at 4°C, 14,000 g for 10 min. The supernatant (10 μl) was injected into LC-MS/MS for analysis. An Aglient 6410B triple quadrupole mass spectrometer equipped with Agilent1290 Infinity UHPLC system (Agilent Technologies, Santa Clara, CA) was used. TP and propranolol (internal standard, IS) were eluted from an Agilent C18 column (dp = 3.5 μm, 2.1 × 50 mm, Agilent, MA) using a mobile phase gradient (A: water with 0.1% formic acid and 2.5 mM ammonium formate, B: acetonitrile with 0.1% formic acid). The gradient was run as: 0–2.5 min hold at 95% B; 2.5–3 min, a linear gradient to 10% B; 3–4 min hold at 10% B. Flow rate was 0.2 ml/min. TP and propranolol were detected in positive ion mode using single reaction monitoring: TP, m/z 378.1/360.1, IS, m/z 260.0/116.0. Under the above optimized condition, no significant endogenous interferences were detected at the peak regions for TP and IS in all the biological specimens. The calibration curves of TP were linear (r^2 > 0.99) over the concentration range of 1–1000 ng/ml. The lower limit of quantification was at 1 ng/ml. The intra and inter-day precisions (RSD) were all below 11% and the assay accuracies (RE) were in the range from 87% to 113%. The recovery was above 80% for both plasma and tissue samples.
Toxicokinetic parameters, including area under the plasma concentration-time curve (AUC), volume of distribution (Vd), clearance (CL), mean residence time (MRT) and terminal elimination half-life (t1/2), were calculated by non-compartmental analysis using WinNonlin 5.2 software (Pharsight Corporation, CA, USA). All the data were expressed as mean ± SD. Differences between groups were compared by Student’s t-test for analysis of unpaired data or one-way ANOVA. Statistical significance was accepted at P < 0.05.

BALB/C mice [3] = test: Hepatic MDA content and SOD activity in mice; format: in vivo; conditions: 24 h; for Hepatic MDA level, fold increase: significance vs normal group
Method: as §1
At 24 h of TP treatment, blood and liver tissue samples were collected from the mice in plasma kinetic study. Serum ALT and AST levels were determined with a CL8000 automated biochemical analyzer (Shimadzu, Japan) after serum was separated by centrifugation at 900 g for 10 min. […] The total protein concentration was quantified by the BCA assay. Bcl-2 and Bax proteins were measured by western blot.

BALB/C mice [4] = test: Death rate of mice after TP treatment; format: in vivo; conditions: TP 1 mg/kg iv, pretreatment with mdr1a-siRNA
Method: For TP plasma kinetic study and toxicological evaluation, mice were divided into four groups (n = 5 each) to collect blood and tissue samples: (1) normal + saline group; (2) 1.0 mg/kg TP + 15 nmol NC-siRNA group; (3) 1.0 mg/kg TP + 15 nmol mdr1a-siRNA group; (4) 1.0 mg/kg TP + 10 mg/kg tariquidar group. In order to avoid the complication caused by drug absorption or possible intestinal first-pass effect, TP and the inhibitor were intravenously administrated to mice. The siRNA group was intravenously injected with NC-siRNA or mdr1a-siRNA 2 days before TP dose. For TP + tariquidar group, the mice were received an intravenous tariquidar dose 20 min prior to the TP injection. Blood samples were collected at 2, 5, 10, 15, 30, 60 and 120 min after TP dosing. To assess the liver exposure of TP, liver tissue samples were collected from another set of mice at 5, 30, 60 and 120 min after dosing. Three TP groups were design for this experiment, including TP + NC-siRNA group, TP + mdr1a-siRNA group and TP + tariquidar group. The liver tissue samples were weighed and then homogenized in 10 volume (w:v) of ice-cold saline. The concentrations of TP in plasma and liver tissue were measured by a validated LC-MS/MS method. […]

[5] = C57, mouse, iv, 1 mg/kg, 15 nmol NC-siRNA iv 2 days before (control)
[6] = C57, mouse, iv, 1 mg/kg, 15 nmol mdr1a-siRNA iv 2 days before
[7] = C57, mouse, iv, 1 mg/kg, with tariquidar 10 mg/kg iv, 20 min before TP, tariquidar 10 mg/kg iv 20 min prior
[8] = 15 nmol NC-siRNA iv 2 days before (control)
[9] = 15 nmol mdr1a-siRNA iv 2 days before

In the case of CC(C)[C@]12O[C@H]1[C@@H]1O[C@]13[C@]1(O[C@H]1C[C@H]1C4=C(CC[C@@]13C)C(=O)OC4)[C@@H]2O [TP, Triptolide], the “Bcl-2/Bax ratio in liver” value (Bcl-2/Bax) is given as “significantly reduced”, the “TP dose excreted via bile” value [1] is given as about 39% and the MRT ([2]; C57, mouse, 15 nmol NC-siRNA iv 2 days before (control)) is given as 20.4 ± 7.8 min. It also gave an AUC(0-t) [2, 5] of 104 ± 9.6 ng·h/mL, a Vd [2, 5] of 4.8 ± 1.1 L/kg and a half-life [2, 5] of 20.4 ± 8.4 min. The Cmax ([2]; C57, mouse, iv, 1 mg/kg, 15 nmol NC-siRNA iv 2 days before (control), read-out: Cmax) was 413 ± 74 ng/mL, the AUC(0-t) [2, 6] was 154 ± 30.2 ng·h/mL and the Vd [2, 6] was 3.3 ± 0.7 L/kg. For the same molecule, the half-life [2, 6] was 29.4 ± 13.8 min, the Cmax ([2]; C57, mouse, iv, 1 mg/kg, 15 nmol mdr1a-siRNA iv 2 days before, read-out: Cmax) was 510 ± 94 ng/mL and the AUC(0-t) [2, 7] was 146 ± 24.6 ng·h/mL. The Vd [2, 7] was 3.9 ± 1.3 L/kg, the half-life [2, 7] was 29.4 ± 13.2 min and the Cmax ([2]; C57, mouse, iv, 1 mg/kg, with tariquidar 10 mg/kg iv, 20 min before TP, tariquidar 10 mg/kg iv 20 min prior, read-out: Cmax) was 472 ± 66.5 ng/mL. It also gave a CL [2, 8] of 573.84 ± 61.452 L/h/kg, a Cmax [2, 8] of 413.1 ± 74.2 ng/mL and a CL [2, 9] of 345.32 ± 72.006 L/h/kg. For the same molecule, the Cmax [2, 9] was 509.7 ± 94.1 ng/mL, the MRT ([2]; mouse, 15 nmol mdr1a-siRNA iv 2 days before) was 30.6 ± 13.8 min and the MRT ([2]; mouse, with tariquidar 10 mg/kg iv, 20 min before TP, tariquidar 10 mg/kg iv 20 min prior) was 30 ± 13.2 min. The “Hepatic MDA level, fold increase” value (BALB/C mice [3]; TP 1 mg/kg iv + mdr1a-siRNA) was 1.6 fold, the “Hepatic MDA level, fold increase” value (BALB/C mice [3]; TP 1 mg/kg iv + tariquidar 10 mg/kg) was 1.3 fold and the “Hepatic SOD activity” value (BALB/C mice [3]; all three TP groups, significant only with tariquidar or mdr1a-siRNA) was “reduction”. The “Death rate within 30 h of TP treatment” value (BALB/C mice [4]) was “about 60%”.
